Laboratory results taken from article PMC6260619, “Selective Cytotoxicity of Goniothalamin against Hepatoblastoma HepG2 Cells” (Molecules, 2011).
Where two headings read alike, the source gives them in different places.

Columns and labels:
Assay type in all cases: cell-based, human
HepG2 cells [1] = test: MTT cytotoxicity assay, HepG2; settings: Homo sapiens, read-out: IC50 from MTT
Procedure: (§1) HepG2 and Chang cells were plated at 1 × 10^4 cells/well by adding 200 μL of a 5 × 10^4 cells/mL suspension to each well of a 96-well tissue culture plate. The plate was incubated for a sufficient time to assure attachment and 40% to 60% confluency. […] The last row was left as an untreated control. The plates were incubated at 37 °C, 5% CO2, for 24, 48 and 72 hours, respectively. After incubation with compounds, the media was aspirated off and replaced with fresh media. Then, MTT solution (20 μL) for a total volume of 200 μL was added in every well and incubated for 4 to 6 hours at 37 °C with 5% CO2. After that, MTT-containing medium was removed gently and replaced with DMSO (200 μL per well) to mix the formazan crystals until dissolved. The plates were read on microtiter plate reader at 570 nm. For each compound tested, the IC50 (concentration of drug needed to inhibit cell growth by 50%) is generated from the dose-response curves for each cell line.

HepG2 cells [2] = test: Cell cycle PI analysis by flow cytometry, HepG2
Procedure: The ability of a substance to affect specific phases of the cell cycle may provide clues as to its mechanism(s) of action. To determine the effects of goniothalamin on the cell cycle, HepG2 cells were treated with IC50 levels of goniothalamin (determined from the MTT assay) for 24, 48 and 72 hours, respectively. The cells were stained with PI and the DNA contents analyzed by flow cytometry.
(§2) The treated cells were trypsinized and washed with PBS. After centrifugation, the supernatant was removed. Then, 1 × 10^6 cells were harvested and fixed in ice-cold ethanol (70%). The fixed cells were centrifuged at high speed (180 × g) for 10 minutes to adequately pellet down the cells that were suspended in the ethanol. The pellet was washed by the ice-cold PBS and then centrifuged again at 180 × g for 10 minutes. The final pellet was resuspended with 1 mL of RNase and incubated at 37 °C for 30 minutes. At the end of incubation, DNA binding dye PI (1 mg/mL) was added to give a final concentration of 50 µg/mL. The mixture was incubated at room temperature for 10 min in the dark. Data acquisition and analysis were performed in by flow cytometry FACS Calibur flow cytometer (Becton Dickinson, Franklin Lakes, NJ, USA) using CellQuest 3.3 software.

Chang cells [3] = test: MTT cytotoxicity assay, Chang; settings: Homo sapiens, read-out: IC50 from MTT
Procedure: as §1

Chang cells [4] = test: Cell cycle PI analysis by flow cytometry, Chang
Procedure: The effect of goniothalamin on the cell cycle distribution of non-malignant Chang cells was also assessed. […] Accordingly, goniothalamin induced a marked apoptosis in a time-dependent manner at IC50 concentrations. As expected, the increase in the apoptotic population was associated with a concomitant enlargement of the pre-phase population, as observed in cell cycle analysis.
as §2

[5] = HepG2, 24h, at IC50 (goniothalamin 9.2 µM; doxorubicin 2.2 µM)
[6] = HepG2, 48h, at IC50 (goniothalamin 8.3 µM; doxorubicin 4.3 µM)
[7] = HepG2, 72h, at IC50 (goniothalamin 4.6 µM; doxorubicin […])
[8] = 24h, at IC50 (goniothalamin 79.10 µM; doxorubicin 0.83 µM)
[9] = 48h, at IC50 (goniothalamin 63.75 µM; doxorubicin 0.41 µM)
[10] = 72h, at IC50 (goniothalamin 35.01 µM; doxorubicin 0.28 µM)

SMILES: COc1cccc2c1C(=O)c1c(O)c3c(c(O)c1C2=O)C[C@@](O)(C(=O)CO)C[C@@H]3O[C@H]1C[C@H](N)[C@H](O)[C@H](C)O1 [Doxorubicin, reference compound]
- IC50 (HepG2 cells [1]; HepG2, 24 h): 2200 nM
- IC50 (HepG2 cells [1]; HepG2, 48 h): 4300 nM
- IC50 (HepG2 cells [1]; HepG2, 72 h): 1060 nM
- G0/G1 (HepG2 cells [2]; [5]): 76.46 ± 3.80%
- G2+M (HepG2 cells [2]; [5]): 11.64 ± 3.02%
- S (HepG2 cells [2]; [5]): 8.54 ± 0.38%
- SubG0/G1 (HepG2 cells [2]; [5]): 3.36 ± 1.02%
- G0/G1 (HepG2 cells [2]; [6]): 65.17 ± 12.80%
- S (HepG2 cells [2]; [6]): 15.15 ± 10.96%
- SubG0/G1 (HepG2 cells [2]; [6]): 5.14 ± 2.53%
- G0/G1 (HepG2 cells [2]; [7]): 60.64 ± 0.79%
- G2+M (HepG2 cells [2]; [7]): 2.66 ± 0.37%
- S (HepG2 cells [2]; [7]): 5.91 ± 0.15%
- SubG0/G1 (HepG2 cells [2]; [7]): 30.79 ± 0.57%
- IC50 (Chang cells [3]; 24 h): 830 nM
- IC50 (Chang cells [3]; 48 h): 410 nM
- IC50 (Chang cells [3]; 72 h): 280 nM
- G0/G1 (Chang cells [4]; [8]): 50.84 ± 6.03%
- G2+M (Chang cells [4]; [8]): 16.36 ± 1.28%
- S (Chang cells [4]; [8]): 22.09 ± 0.03%
- SubG0/G1 (Chang cells [4]; [8]): 10.71 ± 7.28%
- G0/G1 (Chang cells [4]; [9]): 62.43 ± 9.80%
- G2+M (Chang cells [4]; [9]): 10.37 ± 0.21%
- S (Chang cells [4]; [9]): 15.31 ± 3.10%
- SubG0/G1 (Chang cells [4]; [9]): 11.89 ± 6.49%
- G0/G1 (Chang cells [4]; [10]): 54.12 ± 1.52%
- G2+M (Chang cells [4]; [10]): 8.63 ± 2.17%
- S (Chang cells [4]; [10]): 15.19 ± 2.83%
- SubG0/G1 (Chang cells [4]; [10]): 22.06 ± 5.17%
